Results as given in ChEMBL document CHEMBL1141505, “Conformational significance of EH21A1-A4, phenolic derivatives of geldanamycin, for Hsp90 inhibitory activity” (Bioorg Med Chem Lett, 2008).
pEC50: −log10 of the molar value.

Columns and labels:
[1] = Binding affinity at purified Hsp90 by DELFIA assay
KPL4 [2] = assay: Inhibition of Hsp90 in human KPL4 cells assessed as depletion of Raf-1 level after 40 hrs; type: cell-based
[3] = Growth inhibition of human KPL4 cells; type: functional
DLD-1 = assay: Growth inhibition of human DLD1 cells; type: functional
HCT-116 = assay: Growth inhibition of human HCT116 cells; type: functional
KPL4 [4] = assay: Inhibition of Hsp90 in human KPL4 cells assessed as depletion of ErbB2 level after 40 hrs; type: cell-based
A549 = assay: Growth inhibition of human A549 cells; type: functional
K562 = assay: Induction of human K562 cells differentiation; type: functional, cell-based

| Compound | pEC50 [1] | GI50 (DLD-1) [nM] | GI50 (HCT-116) [nM] | GI50 (A549) [nM] | pEC50 (K562) | MEC (KPL4 [2]) [µM] | GI50 [3] [nM] | MEC (KPL4 [4]) [µM] |
| --- | --- | --- | --- | --- | --- | --- | --- | --- |
| COC1=C2C[C@@H](C)C[C@H](OC)[C@H](O)[C@@H](C)/C=C(\C)[C@H](OC(N)=O)[C@@H](OC)/C=C\C=C(/C)C(=O)NC(=CC1=O)C2=O [GELDANAMYCIN] | 7.24 | 37 | 21 | 64 |  | 0.33 | 59 | 0.11 |
| C=CCNC1=C2C[C@@H](C)C[C@H](OC)[C@H](O)[C@@H](C)/C=C(\C)[C@H](OC(N)=O)[C@@H](OC)/C=C\C=C(/C)C(=O)NC(=CC1=O)C2=O [TANESPIMYCIN] |  |  |  |  |  | 0.03 | 7 | 0.03 |
| COc1c(O)cc2cc1C[C@@H](C)C[C@H](OC)[C@H](O)[C@@H](C)/C=C(\C)[C@H](OC(N)=O)[C@@H](OC)CC/C=C(\C)C(=O)N2 [REBLASTATIN] | 8.64 | 2080 | 500 | 2720 | 6.12 | 0.33 | 450 | 0.33 |
| C[C@@H]1C[C@H]2O[C@@H]2/C=C\C=C\C(=O)Cc2c(Cl)c(O)cc(O)c2C(=O)O1 [RADICICOL] | 9.10 | 76 | 58 | 110 |  |  |  |  |

More lines, in order of rising pEC50 [1], values ahead:

| pEC50 [1] | GI50 (DLD-1) [nM] | GI50 (HCT-116) [nM] | GI50 (A549) [nM] | pEC50 (K562) | Compound | MEC (KPL4 [2]) [µM] | GI50 [3] [nM] | MEC (KPL4 [4]) [µM] |
| --- | --- | --- | --- | --- | --- | --- | --- | --- |
| 7.68 | 3520 | 610 | 3550 | 6.64 | COc1c2cc(cc1OC(C)=O)NC(=O)/C(C)=C/CC[C@H](OC)[C@@H](OC(N)=O)/C(C)=C/[C@H](C)[C@@H](O)[C@@H](OC)C[C@H](C)C2 | 0.11 | 180 | 0.33 |
| 7.83 | > 10000 | > 10000 | > 10000 | 4.96 | CO[C@H]1C[C@H](C)Cc2cc(O)cc(c2)NC(=O)/C=C/CC[C@H](OC)[C@@H](OC(N)=O)/C(C)=C/[C@H](C)[C@H]1O | 3.3 | 3390 | 3.3 |
| 8.22 | 9400 | 8910 | 10300 | 4.68 | CO[C@H]1C[C@H](C)Cc2cc(cc(O)c2O)NC(=O)/C(C)=C/CC[C@H](OC)[C@@H](OC(N)=O)/C(C)=C/[C@H](C)[C@H]1O | 10 | 4330 | 10 |
| 8.66 | 2350 | 780 | 2730 | 5.72 | CO[C@H]1C[C@H](C)Cc2cc(O)cc(c2)NC(=O)/C(C)=C/CC[C@H](OC)[C@@H](OC(N)=O)/C(C)=C/[C@H](C)[C@H]1O | 1 | 730 | 1 |
